From patent US11225503B2, “Crystobactamides” (HELMHOLTZ-ZENTRUM FÜR INFEKTIONSFORSCHUNG GMBH, priority 2013, dated 2022) come the findings set out here.

The subject of the assay is several microorganisms and cell lines. The assay can be described thus: Biological evaluation, summary statements over the MIC and cytotoxicity tests. It counts as cell-based. The protocol:
Cells were seeded at 6×10^3 cells per well of 96-well plates (Corning CellBind®) in complete medium (180 μl) and directly treated with cystobactamides dissolved in methanol in a serial dilution. Compound were tested in duplicate for 5 d, as well as the internal solvent control. After 5 d incubation, 5 mg/ml MTT in PBS (20 μL) was added per well and it was further incubated for 2 h at 37° C.[7] The medium was then discarded and cells were washed with PBS (100 μl) before adding 2-propanol/10N HCl (250:1, v/v; 100 μl) in order to dissolve formazan granules. The absorbance at 570 nm was measured using a microplate reader (EL808, Bio-Tek Instruments Inc.).
MIC values were determined in microdilution assays. Overnight cultures were diluted in the appropriate growth medium to achieve an inoculum of 10^4-10^6 cfu/mL. Yeasts were grown in Myc medium (1% phytone peptone, 1% glucose, 50 mM HEPES, pH 7.0), S. pneumonia and E. faecalis in tryptic soy broth (TSB: 1.7% peptone casein, 0.3% peptone soymeal, 0.25% glucose, 0.5% NaCl, 0.25% K2HPO4; pH 7.3); M. smegmatis in Middlebrook 7H9 medium supplemented with 10% Middlebrook ADC enrichment and 2 ml/l glycerol). All other listed bacteria were grown in Müller-Hinton broth (0.2% beef infusion solids, 1.75% casein hydrolysate, 0.15% starch, pH 7.4). Cystobactamides and reference drugs were added directly to the cultures in sterile 96-well plates as duplicates and serial dilutions were prepared. Microorganisms were grown on a microplate shaker (750 rpm, 30-37° C., 18-48 h), except S. pneumonia, which was grown at non-shaking conditions (37° C., 5% CO2, 18 h). Growth inhibition was assessed by visual inspection and the MIC was defined as the lowest concentration of compound that inhibited visible growth.

For the molecule `CO[C@H](C(=O)Nc1ccc(C(=O)Nc2ccc(C(=O)Nc3ccc(C(=O)O)cc3OC(C)C)c(O)c2OC(C)C)cc1)[C@H](NC(=O)c1ccc(NC(=O)c2ccc([N+](=O)[O-])cc2)cc1)C(=O)O` [cystobactamide A, Cystobactamide A], the “inhibition of pathogenic Gram-negative strains A. baumannii and P. aeruginosa (MIC range)” value (A. baumannii and P. aeruginosa) was “low μg/ml range”. The “average potency on Gram-positive bacteria compared with ciprofloxacin” value (E. faecalis, S. aureus, S. pneumonia, average MIC) is given as “exceeded that of ciprofloxacin”.
